The data set relates to primary human lung fibroblasts. The data set can be described thus: 72 hour cell population growth, MTS assay (CellTiter 96 AQueous). It is filed as cell-based. The note with it: for IC50: Homo sapiens, Fibroblast, 72 h, 10% FBS, read-out: mean pIC50, inhibition of cell growth (MTS) (converted). The procedure: Primary human fibroblasts were isolated by explant culture from non-IPF lung tissue, obtained post mortem following sudden trauma, and IPF lung tissue obtained from the lungs of IPF patients which were removed for transplantation or biopsy. Explants were cultured in DMEM containing high glucose and sodium pyruvate (PAA laboratories, catalogue #E15-011) with penicillin/streptomycin (Sigma #P4333), amphotericin B (Sigma #A2942), L-glutamine (Gibco #25030) and 20% FBS (foetal bovine serum, Lonza, catalogue #14-801F, Lot #1SB003) at 37° C., 100% humidity, 10% CO2. Cells were designated non-IPF (UCL marked 0110 and 0610) and IPF (UCL marked 0207, 0208, 0308, 0507 and 0508) based on medical diagnosis.
Human lung primary fibroblast cell lines were cultured in DMEM containing high glucose and sodium pyruvate supplemented with L-glutamine, penicillin/streptomycin and 10% FBS (complete DMEM) at 37° C., 100% humidity, 10% CO2. Cells were split into T175 flasks (NUNC #159910) 2 to 3 days prior to assay set-up at a density which yields approximately 70-80% confluence at time of harvest for assay. […]
For reading 20 μL of CellTiter 96™ AQueous non-radioactive cell growth assay (MTS) reagent (Promega #G5430) was added to all wells. Plates were incubated for a further 2 hours at 37° C., 100% humidity, 10% CO2 then read at 490 nm on a Versamax microplate reader using Softmax Pro v5 software. Readings were corrected for FBS discoloration as per manufacturer's instructions, by the subtraction of values from media control (no cell) wells.
The maximum fitted (upper asymptote) value for each experiment and used as the 100% reference response. The MTS signal (with media background values subtracted) in the presence of increasing log Molar concentrations of 2,4-difluoro-N-{2-(methyloxy)-5-[4-(4-pyridazinyl)-6-quinolinyl]-3-pyridinyl}benzenesulfonamide were expressed as a % of the maximum asymptote. […]
In a subset of experiments, where cell growth was measured in parallel with activation of caspase 3/7, T0 readings were taken when serum free medium was changed to 10% FBS and compound added. […]

This note sets out measurements from patent publication US20160067247A1, “NOVEL USE” (GlaxoSmithKline Intellectual Property (No.2) Limited, priority 2012, published 2016).

Where two headings read alike, the source gives them in different places.

Turning to `COc1ncc(-c2ccc3nccc(-c4ccnnc4)c3c2)cc1NS(=O)(=O)c1ccc(F)cc1F` [2,4-difluoro-N-{2-(methyloxy)-5-[4-(4-pyridazinyl)-6-quinolinyl]-3-pyridinyl}benzenesulfonamide], the IC50 was 0.0316 µM (IPF fibroblasts, n=5 cell lines (+/-0.1 SEM)) and 0.02 µM (primary human non-IPF fibroblasts, n=2 lines (±0.2 SEM)). The “concentration at which MTS signal with 10% FBS appeared lower than no FBS controls (reduction in cell number, potentially indicative of cell death)” value (fibroblasts) was above 30 nM.
